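1) Cells in 96-well plates. 2) Compound, 48 h, 5 concentrations. 3) Linear interpolation between surrounding doses. 4) Unreached endpoint = highest concentration. At the GI50, growth is halved.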 The source made the active and inactive calls. Rule as the data show it: active = GI50 up to about 1.1 µM and inactive = higher.
Legend:
Assay in all cases: NCI tumour cell line growth inhibition, 48 h
[1] = tested on: OVCAR-8
[2] = tested on: SF-295
[3] = tested on: NCI/ADR-RES
[4] = tested on: MDA-MB-435
[5] = tested on: SF-539
[6] = tested on: HCT-116
[7] = tested on: T47D
[8] = tested on: CAKI-1
[9] = tested on: TK-10
[10] = tested on: COLO 205
[11] = tested on: RXF 393
[12] = tested on: BT-549
[13] = tested on: NCI-H522
[14] = tested on: IGROV-1
[15] = tested on: PC-3
[16] = tested on: HT-29
[17] = tested on: OVCAR-5
[18] = tested on: SK-MEL-5
[19] = tested on: K562
[20] = tested on: UO-31
[21] = tested on: OVCAR-4
[22] = tested on: NCI-H460
[23] = tested on: MCF7
[24] = tested on: EKVX
[25] = tested on: SN12C
[26] = tested on: U-251
[27] = tested on: HOP-62
[28] = tested on: UACC-257
[29] = tested on: 786-0
[30] = tested on: SNB-75
[31] = tested on: HCC 2998
[32] = tested on: SK-MEL-2
[33] = tested on: ACHN
[34] = tested on: UACC-62
[35] = tested on: HL-60
[36] = tested on: MOLT-4
[37] = tested on: CCRF-CEM
[38] = tested on: SR
[39] = tested on: HOP-92
[40] = tested on: A549
[41] = tested on: NCI-H226
[42] = tested on: SNB-19
[43] = tested on: MDA-MB-231
[44] = tested on: LOX IMVI
[45] = tested on: M14
[46] = tested on: SK-MEL-28
[47] = tested on: DU-145
[48] = tested on: RPMI-8226
[49] = tested on: A498
[50] = tested on: SW-620
[51] = tested on: MDA-N
[52] = tested on: SF-268
[53] = tested on: Malme-3M
[54] = tested on: HCT-15
[55] = tested on: KM12
[56] = tested on: Hs-578T
[57] = tested on: OVCAR-3
[58] = tested on: SK-OV-3
[59] = tested on: NCI-H23
[60] = tested on: DMS-273
[61] = tested on: KM-20L2
[62] = tested on: DMS-114
[63] = tested on: LXFL 529
[64] = tested on: SNB-78
[65] = tested on: M19-MEL
[66] = tested on: DLD-1
[67] = tested on: HOP-18

C=CC(C)(C)n1cc(C2=C(O)C(=O)C(c3cn(C(C)(C)C=C)c4ccccc34)=C(O)C2=O)c2ccccc21
GI50 [1]: 2.11 µM (inactive) | GI50 [2]: 2.85 µM (inactive) | GI50 [3]: 2.2 µM (inactive) | GI50 [4]: 3.79 µM (inactive) | GI50 [5]: 1.59 µM (inactive) | GI50 [6]: 3.27 µM (inactive) | GI50 [7]: 6.71 µM (inactive) | GI50 [8]: 2.34 µM (inactive) | GI50 [9]: 3.18 µM (inactive) | GI50 [10]: 9.14 µM (inactive) | GI50 [11]: 0.435 µM (active) | GI50 [12]: 1.01 µM (active) | GI50 [13]: 2.53 µM (inactive) | GI50 [14]: 2.7 µM (inactive) | GI50 [15]: 2.27 µM (inactive) | GI50 [16]: 3.74 µM (inactive) | GI50 [17]: 1.89 µM (inactive) | GI50 [18]: 2.08 µM (inactive) | GI50 [19]: 5.62 µM (inactive) | GI50 [20]: 1.67 µM (inactive) | GI50 [21]: 1.76 µM (inactive) | GI50 [22]: 2.84 µM (inactive) | GI50 [23]: 3.48 µM (inactive) | GI50 [24]: 2.93 µM (inactive) | GI50 [25]: 2.5 µM (inactive) | GI50 [26]: 2.35 µM (inactive) | GI50 [27]: 2.32 µM (inactive) | GI50 [28]: 2.9 µM (inactive) | GI50 [29]: 3.05 µM (inactive) | GI50 [30]: 2.36 µM (inactive) | GI50 [31]: 2.61 µM (inactive) | GI50 [32]: 1.73 µM (inactive) | GI50 [33]: 3.69 µM (inactive) | GI50 [34]: 1.98 µM (inactive) | GI50 [35]: 5.09 µM (inactive) | GI50 [36]: 4.07 µM (inactive) | GI50 [37]: 5.25 µM (inactive) | GI50 [38]: 3.57 µM (inactive) | GI50 [39]: 3.34 µM (inactive) | GI50 [40]: 3.68 µM (inactive) | GI50 [41]: 2.67 µM (inactive) | GI50 [42]: 2.41 µM (inactive) | GI50 [43]: 3.71 µM (inactive) | GI50 [44]: 3.13 µM (inactive) | GI50 [45]: 2.71 µM (inactive) | GI50 [46]: 7.33 µM (inactive) | GI50 [47]: 4.9 µM (inactive) | GI50 [48]: 4.44 µM (inactive) | GI50 [49]: 5.97 µM (inactive) | GI50 [50]: 10.3 µM (inactive) | GI50 [51]: 1.95 µM (inactive) | GI50 [52]: 2.19 µM (inactive) | GI50 [53]: 2.54 µM (inactive) | GI50 [54]: 1.75 µM | GI50 [55]: 3.37 µM (inactive) | GI50 [56]: 2.07 µM (inactive) | GI50 [57]: 1.96 µM (inactive) | GI50 [58]: 2.67 µM (inactive) | GI50 [59]: 2.32 µM (inactive)

c1ccc2nc(-c3ccc4c(c3)OCO4)ccc2c1
GI50 [1]: 43.5 µM (inactive) | GI50 [2]: 46.7 µM (inactive) | GI50 [5]: 56.9 µM (inactive) | GI50 [8]: 28.8 µM (inactive) | GI50 [9]: 64 µM (inactive) | GI50 [10]: 74.6 µM (inactive) | GI50 [11]: 15.2 µM (inactive) | GI50 [13]: 31.8 µM (inactive) | GI50 [16]: 24.7 µM (inactive) | GI50 [60]: 26.2 µM (inactive) | GI50 [17]: 48.5 µM (inactive) | GI50 [20]: 20 µM (inactive) | GI50 [21]: 24.8 µM (inactive) | GI50 [22]: 34.5 µM (inactive) | GI50 [24]: 24.9 µM (inactive) | GI50 [25]: 43.2 µM (inactive) | GI50 [26]: 53.6 µM (inactive) | GI50 [27]: 22 µM (inactive) | GI50 [28]: 15.6 µM (inactive) | GI50 [29]: 76.7 µM (inactive) | GI50 [30]: 22.5 µM (inactive) | GI50 [31]: 38.3 µM (inactive) | GI50 [32]: 41.3 µM (inactive) | GI50 [33]: 26.5 µM (inactive) | GI50 [35]: 29.1 µM (inactive) | GI50 [61]: 39.6 µM (inactive) | GI50 [62]: 23.4 µM (inactive) | GI50 [38]: 16.7 µM (inactive) | GI50 [39]: 2.8 µM (inactive) | GI50 [40]: 49.2 µM (inactive) | GI50 [63]: 22.5 µM (inactive) | GI50 [41]: 21.6 µM (inactive) | GI50 [42]: 73.5 µM (inactive) | GI50 [44]: 26.1 µM (inactive) | GI50 [45]: 54.2 µM (inactive) | GI50 [46]: > 100 µM (inactive) | GI50 [50]: 77.6 µM (inactive) | GI50 [52]: 37.7 µM (inactive) | GI50 [53]: 18 µM (inactive) | GI50 [55]: 24.7 µM (inactive) | GI50 [57]: 26.4 µM (inactive) | GI50 [64]: 77.6 µM (inactive) | GI50 [59]: 47.1 µM (inactive)

N/C(=C\c1ccc(OCc2ccccc2)c(OCc2ccccc2)c1[N+](=O)[O-])C(=O)O
GI50 [1]: > 100 µM (inactive) | GI50 [2]: > 100 µM (inactive) | GI50 [65]: > 100 µM (inactive) | GI50 [66]: > 100 µM (inactive) | GI50 [5]: > 100 µM (inactive) | GI50 [6]: > 100 µM (inactive) | GI50 [9]: > 100 µM (inactive) | GI50 [10]: > 100 µM (inactive) | GI50 [11]: > 100 µM (inactive) | GI50 [13]: > 100 µM (inactive) | GI50 [14]: > 100 µM (inactive) | GI50 [16]: > 100 µM (inactive) | GI50 [60]: > 100 µM (inactive) | GI50 [17]: > 100 µM (inactive) | GI50 [18]: > 100 µM (inactive) | GI50 [19]: > 100 µM (inactive) | GI50 [20]: > 100 µM (inactive) | GI50 [24]: > 100 µM (inactive) | GI50 [25]: > 100 µM (inactive) | GI50 [26]: > 100 µM (inactive) | GI50 [27]: > 100 µM (inactive) | GI50 [28]: > 100 µM (inactive) | GI50 [29]: > 100 µM (inactive) | GI50 [30]: > 100 µM (inactive) | GI50 [31]: > 100 µM (inactive) | GI50 [32]: > 100 µM (inactive) | GI50 [33]: > 100 µM (inactive) | GI50 [34]: > 100 µM (inactive) | GI50 [67]: > 100 µM (inactive) | GI50 [35]: > 100 µM (inactive) | GI50 [61]: > 100 µM (inactive) | GI50 [36]: > 100 µM (inactive) | GI50 [37]: > 100 µM (inactive) | GI50 [38]: > 100 µM (inactive) | GI50 [39]: > 100 µM (inactive) | GI50 [40]: > 100 µM (inactive) | GI50 [63]: > 100 µM (inactive) | GI50 [41]: > 100 µM (inactive) | GI50 [42]: > 100 µM (inactive) | GI50 [44]: > 100 µM (inactive) | GI50 [45]: > 100 µM (inactive) | GI50 [46]: > 100 µM (inactive) | GI50 [48]: > 100 µM (inactive) | GI50 [49]: > 100 µM (inactive) | GI50 [50]: > 100 µM (inactive) | GI50 [52]: > 100 µM (inactive) | GI50 [53]: > 100 µM (inactive) | GI50 [55]: > 100 µM (inactive) | GI50 [57]: > 100 µM (inactive) | GI50 [58]: > 100 µM (inactive) | GI50 [64]: > 100 µM (inactive) | GI50 [59]: > 100 µM (inactive)

Reference: ChEMBL document CHEMBL1201862, “PubChem BioAssay data set” (2004)
